Data: patent publication US11453677B2 (priority 2016, dated 2022)

Columns and labels:
Test in all cases: cells
Type in all cases: cell-based
[1] = test system: influenza A virus minigenome (PB2, PB1, PA, NP) RNP_Alaska in 293T cells; details: HEK-293T, 48 h, read-out: RNP_Alaska EC50
[2] = test system: influenza A virus minigenome (PB2, PB1, PA, NP) RNP_CAL in 293T cells; details: HEK-293T, 48 h, read-out: RNP_CAL_EC50
[3] = test system: influenza virus minigenome (PB2, PB1, PA, NP) RNP_Hubei in 293T cells; details: unidentified influenza virus, HEK-293T, 48 h, read-out: RNP_Hubei EC50

| SMILES | EC50 [1] [nM] | EC50 [2] [nM] | EC50 [3] [nM] |
| --- | --- | --- | --- |
| O=c1cnn2c(c1O)-c1nccn1CC2C(c1ccccc1)c1ccccc1 (stereo not shown) [Example 1, 6-Benzhydryl-11-hydroxy-5H-imidazo[2′,1′:3,4]pyrazino[1,2-b]pyridazin-10(6H)-one] | 130 | 110 | 110 |
| O=c1cnn2c(c1O)-c1nccn1CC2C(c1cccc(F)c1)c1cccc(F)c1 (stereo not shown) [Example 2, 6-(bis(3-fluorophenyl)methyl)-11-hydroxy-5,6-dihydro-10H-imidazo[2′,1′:3,4]pyrazino[1,2-b]pyridazin-10-one] | 110 | 110 | 90 |
| O=c1cnn2c(c1O)-c1ncnn1CC2C(c1ccccc1)c1ccccc1 (stereo not shown) [Example 3, 6-benzhydryl-11-hydroxy-5,6-dihydro-10H-[1,2,4]triazolo[5′,1′:3,4]pyrazino[1,2-b]pyridazin-10-one] | 1400 | 1100 | 790 |
| O=c1ccn2c(c1O)-c1nccn1C[C@@H]2C(c1ccccc1)c1ccccc1 [Example 4, (S)-6-Benzhydryl-11-hydroxy-5H-imidazo[1,2-a]pyrido[2,1-c]pyrazin-10(6H)-one] | 180 | 160 | 90 |
| O=c1ccn2c(c1O)-c1ncc(Cl)n1C[C@@H]2C(c1ccccc1)c1ccccc1 [Example 5, (S)-6-Benzhydryl-3-chloro-11-hydroxy-5,6-dihydro-10H-imidazo[1,2-a]pyrido[2,1-c]pyrazin-10-one] | 220 | 100 | 180 |
| O=c1ccn2c(c1O)-c1nccn1CN2C(c1ccccc1)c1ccccc1 [Example 6, 6-benzhydryl-11-hydroxy-5H-imidazo[1,2-d]pyrido[2,1-f][1,2,4]triazin-10(6H)-one] | 150 | 190 | 100 |
| O=c1ccn2c(c1O)-c1ncc(Br)n1C[C@@H]2C(c1ccccc1)c1ccccc1 [Example 7, (S)-6-benzhydryl-3-bromo-11-hydroxy-5H-imidazo[1,2-a]pyrido[2,1-c]pyrazin-10(6H)-one] | 140 | 170 | 160 |
| O=c1ccn2c(c1O)-c1ncc(C3CC3)n1C[C@@H]2C(c1ccccc1)c1ccccc1 [Example 8, (S)-6-benzhydryl-3-cyclopropyl-11-hydroxy-5H-imidazo[1,2-a]pyrido[2,1-c]pyrazin-10(6H)-one] | 490 | 150 | 530 |
| CCc1cnc2n1C[C@H](C(c1ccccc1)c1ccccc1)n1ccc(=O)c(O)c1-2 [Example 9, (S)-6-benzhydryl-3-ethyl-11-hydroxy-5H-imidazo[1,2-a]pyrido[2,1-c]pyrazin-10(6H)-one] | 850 | 580 | 590 |
| O=c1cnn2c(c1O)-c1nccn1CC2C(c1ccc(Cl)cc1)c1ccc(Cl)cc1 (stereo not shown) [Example 10, 6-(bis(4-chlorophenyl)methyl)-11-hydroxy-5H-imidazo[2′,1′:3,4]pyrazino[1,2-b]pyridazin-10(6H)-one] | 290 | 320 | 820 |
| O=c1cnn2c(c1O)-c1nccn1CC2C(c1cccc(Cl)c1)c1cccc(Cl)c1 (stereo not shown) [Example 11, 6-(bis(3-chlorophenyl)methyl)-11-hydroxy-5H-imidazo[2′,1′:3,4]pyrazino[1,2-b]pyridazin-10(6H)-one] | 160 | 80 | 90 |
| O=c1cnn2c(c1O)-c1nccn1CC2C(c1ccc(F)cc1)c1ccc(F)cc1 (stereo not shown) [Example 12, 6-(bis(4-fluorophenyl)methyl)-11-hydroxy-5H-imidazo[2′,1′:3,4]pyrazino[1,2-b]pyridazin-10(6H)-one] | 70 | 800 | 60 |
| Cc1cnc2n1C[C@H](C(c1ccccc1)c1ccccc1)n1ccc(=O)c(O)c1-2 [Example 13, (S)-6-benzhydryl-11-hydroxy-3-methyl-5H-imidazo[1,2-a]pyrido[2,1-c]pyrazin-10(6H)-one] | 570 | 310 | 300 |
| Cc1nc2n(c1C)C[C@H](C(c1ccccc1)c1ccccc1)n1ccc(=O)c(O)c1-2 [Example 14, (S)-6-benzhydryl-11-hydroxy-2,3-dimethyl-5H-imidazo[1,2-a]pyrido[2,1-c]pyrazin-10(6H)-one] | 6700 | 4200 | 5500 |
| O=c1cnn2c(c1O)-c1nccn1C[C@@H]2C(c1cccc(Cl)c1)c1cccc(Cl)c1 [Example 15, (S)-6-(bis(3-chlorophenyl)methyl)-11-hydroxy-5H-imidazo [2′,1′:3,4] pyrazino [1,2-b]pyridazin-10(6H)-one] | 40 | 25 | 19 |
| O=c1cnn2c(c1O)-c1nccn1C[C@H]2C(c1cccc(Cl)c1)c1cccc(Cl)c1 [Example 16, (R)-6-(bis(3-chlorophenyl)methyl)-11-hydroxy-5H-imidazo[2′,1′:3,4] pyrazino [1,2-b]pyridazin-10(6H)-one] | 960 | 820 | 950 |
| O=c1cnn2c(c1O)-c1nccn1C[C@@H]2[C@H](c1ccccc1)c1ccc(F)cc1 [Example 17, (S)-6-((R)-(4-fluorophenyl)(phenyl)methyl)-11-hydroxy-5,6-dihydro-10H-imidazo[2′,1′:3,4]pyrazino[1,2-b]pyridazin-10-one] | 30 | 10 | 70 |
| O=c1cnn2c(c1O)-c1nccn1C[C@@H]2[C@@H](c1ccccc1)c1ccc(F)cc1 [Example 18, (S)-6-((S)-(4-fluorophenyl)(phenyl)methyl)-11-hydroxy-5,6-dihydro-10H-imidazo[2′,1′:3,4]pyrazino[1,2-b]pyridazin-10-one] | 130 | 130 | 160 |
| O=c1cnn2c(c1O)-c1nccn1C[C@@H]2[C@H](c1ccc(F)cc1)c1cncc(F)c1 [Example 19, (S)-6-((R)-(4-fluorophenyl)(5-fluoropyridin-3-yl)methyl)-11-hydroxy-5,6-dihydro-10H-imidazo[2′,1′:3,4]pyrazino[1,2-b]pyridazin-10-one] | 230 | 260 | 490 |
| O=c1cnn2c(c1O)-c1nccn1C[C@@H]2[C@H](c1ccc(F)cc1)c1ccc(C(F)(F)F)nc1 [Example 20, (S)-6-((R)-(4-fluorophenyl)(6-(trifluoromethyl)pyridin-3-yl)methyl)-11-hydroxy-5,6-dihydro-10H-imidazo[2′,1′:3,4]pyrazino[1,2-b]pyridazin-10-one] | 690 | 720 | 740 |
| O=c1cnn2c(c1O)-c1nccn1C[C@@H]2[C@@H](c1ccc(F)cc1)c1cccc(C(F)(F)F)c1 [Example 21, (S)-6-((S)-(4-fluorophenyl)(3-(trifluoromethyl)phenyl)methyl)-11-hydroxy-5,6-dihydro-10H-imidazo[2′,1′:3,4]pyrazino[1,2-b]pyridazin-10-one] | 71 | 52 | 110 |
| O=c1cnn2c(c1O)-c1nccn1C[C@@H]2C(c1ccc(F)cc1)c1ccc(F)cc1 [Example 22, (S)-6-(bis(4-fluorophenyl)methyl)-11-hydroxy-5,6-dihydro-10H-imidazo[2′,1′:3,4]pyrazino[1,2-b]pyridazin-10-one] | 27 | 82 | 10 |
| O=c1cnn2c(c1O)-c1nccn1C[C@@H]2C(c1cccc(F)c1)c1cccc(F)c1 [Example 23, (S)-6-(bis(3-fluorophenyl)methyl)-11-hydroxy-5,6-dihydro-10H-imidazo[2′,1′:3,4]pyrazino[1,2-b]pyridazin-10-one] | 23 | 39 | 36 |
| O=c1cnn2c(c1O)-c1nccn1C[C@@H]2[C@@H](c1ccc(F)cc1)c1cccc(F)c1 [Example 24, (S)-6-((S)-(3-fluorophenyl)(4-fluorophenyl)methyl)-11-hydroxy-5,6-dihydro-10H-imidazo[2′,1′:3,4]pyrazino[1,2-b]pyridazin-10-one] | 52 | 36 | 59 |
| O=c1cnn2c(c1O)-c1nccn1C[C@@H]2[C@@H](c1ccc(F)cc1)c1ccc(F)c(F)c1 [Example 25, (S)-6-((S)-(3,4-difluorophenyl)(4-fluorophenyl)methyl)-11-hydroxy-5H-imidazo[2′,1′:3,4]pyrazino[1,2-b]pyridazin-10(6H)-one] | 62 | 56 | 100 |
| O=c1cnn2c(c1O)-c1nccn1C[C@@H]2[C@H](c1ccc(F)cc1)c1cccc(F)c1 [Example 26, (S)-6-((R)-(3-fluorophenyl)(4-fluorophenyl)methyl)-11-hydroxy-5,6-dihydro-10H-imidazo[2′,1′:3,4]pyrazino[1,2-b]pyridazin-10-one] | 27 | 38 | 51 |
| Cc1cc(F)ccc1[C@H](c1ccc(F)cc1)[C@H]1Cn2ccnc2-c2c(O)c(=O)cnn21 [Example 27, (S)-6-((S)-(4-fluoro-2-methylphenyl)(4-fluorophenyl)methyl)-11-hydroxy-5,6-dihydro-10H-imidazo[2′,1′:3,4]pyrazino[1,2-b]pyridazin-10-one] | 50 | 50 | 27 |
| O=c1ccn2c(c1O)-c1nccn1C(C1CC1)N2C(c1ccccc1)c1ccccc1 (stereo not shown) [Example 73, 6-benzhydryl-5-cyclopropyl-11-hydroxy-5,6-dihydro-10H-imidazo[1,2-d]pyrido[2,1-f][1,2,4]triazin-10-one] | 390 | 170 |  |
| O=c1ccn2c(c1O)-c1ncsc1CN2C(c1ccccc1)c1ccccc1 [Example 81, 5-benzhydryl-10-hydroxy-4,5-dihydro-9H-pyrido[1,2-b]thiazolo[4,5-d]pyridazin-9-one] | 2200 | 7000 |  |
